Measurements taken from ChEMBL document CHEMBL1201862, “PubChem BioAssay data set” (2004).
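In this assay, cells in 96-well plates receive the compound at five concentrations for 48 hours. Endpoints are linearly interpolated between the surrounding concentrations. GI50: concentration for 50% inhibition of growth.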 Calls of active or inactive are those of the source. Cut-off read from the data, not from the text of the source: active = GI50 up to about 1.1 µM and inactive = higher.

How the values were obtained:
Test in all cases: NCI tumour cell line growth inhibition, 48 h
NCI-H522 = tested on: NCI-H522
SF-268 = tested on: SF-268
SK-MEL-5 = tested on: SK-MEL-5
RXF 393 = tested on: RXF 393
LOX IMVI = tested on: LOX IMVI
OVCAR-8 = tested on: OVCAR-8
SN12C = tested on: SN12C
NCI-H460 = tested on: NCI-H460
A549 = tested on: A549
SW-620 = tested on: SW-620
SNB-75 = tested on: SNB-75
OVCAR-3 = tested on: OVCAR-3
KM12 = tested on: KM12
786-0 = tested on: 786-0
K562 = tested on: K562
SF-539 = tested on: SF-539
SR = tested on: SR
HCT-116 = tested on: HCT-116

Measured: GI50

C=CCN(N=O)C(=O)NCCCCC(NC(C)=O)C(=O)NCc1ccccc1 (stereo not given)
inactive: NCI-H522 > 100 µM | SF-268 > 100 µM | SK-MEL-5 > 100 µM | RXF 393 > 100 µM | LOX IMVI > 100 µM | OVCAR-8 > 100 µM | SN12C > 100 µM | NCI-H460 > 100 µM | A549 > 100 µM | SW-620 > 100 µM | SNB-75 > 100 µM | OVCAR-3 > 100 µM | KM12 > 100 µM | 786-0 > 100 µM | K562 > 100 µM | SF-539 > 100 µM

CC(=O)N1C/C(=C\c2ccc(N(C)C)cc2)C(=O)/C(=C/c2ccc(N(C)C)cc2)C1
inactive: SF-268 66.2 µM | SK-MEL-5 54.2 µM | RXF 393 41.6 µM | LOX IMVI 35.3 µM | OVCAR-8 84.1 µM | SN12C 72.3 µM | A549 > 100 µM | SW-620 41.5 µM | SNB-75 17.2 µM | OVCAR-3 20.4 µM | SR 35.6 µM | KM12 35.7 µM | 786-0 39.4 µM | HCT-116 40.6 µM | K562 60 µM | SF-539 27.1 µM

O=C1CCC(=O)N1Sc1ccccc1
inactive: NCI-H522 > 100 µM | SF-268 > 100 µM | SK-MEL-5 > 100 µM | RXF 393 > 100 µM | LOX IMVI > 100 µM | OVCAR-8 > 100 µM | SN12C > 100 µM | NCI-H460 > 100 µM | A549 > 100 µM | SW-620 > 100 µM | SNB-75 72.9 µM | OVCAR-3 > 100 µM | KM12 > 100 µM | 786-0 > 100 µM | HCT-116 > 100 µM | K562 > 100 µM | SF-539 > 100 µM

O=C1C(c2ccc(Br)cc2)=[N+]([O-])c2ccccc21
inactive: NCI-H522 2.45 µM | SF-268 17.6 µM | SK-MEL-5 9.55 µM | RXF 393 16.9 µM | LOX IMVI 8.75 µM | OVCAR-8 10.2 µM | SN12C 15.5 µM | NCI-H460 16.9 µM | A549 20.9 µM | SW-620 26.1 µM | SNB-75 16.6 µM | OVCAR-3 14.9 µM | KM12 14.8 µM | 786-0 17.1 µM | HCT-116 14.4 µM | K562 10.2 µM | SF-539 20.5 µM

c1ccc2c(c1)n1nnnc1c1nnnn21
inactive: NCI-H522 12.6 µM | SF-268 85.1 µM | SK-MEL-5 > 100 µM | RXF 393 87.3 µM | LOX IMVI 33.5 µM | OVCAR-8 92.7 µM | SN12C > 100 µM | NCI-H460 > 100 µM | A549 > 100 µM | SW-620 > 100 µM | SNB-75 24.6 µM | OVCAR-3 > 100 µM | KM12 > 100 µM | 786-0 83.4 µM | HCT-116 > 100 µM | K562 > 100 µM | SF-539 78.9 µM

COC(=O)CCC(NC(=S)N/N=C(\C)c1ccc[nH]1)C(=O)OC (stereo not given)
inactive: NCI-H522 > 100 µM | SF-268 > 100 µM | SK-MEL-5 > 100 µM | RXF 393 > 100 µM | LOX IMVI > 100 µM | OVCAR-8 > 100 µM | SN12C > 100 µM | NCI-H460 > 100 µM | A549 > 100 µM | SW-620 > 100 µM | SNB-75 > 100 µM | OVCAR-3 > 100 µM | KM12 > 100 µM | 786-0 > 100 µM | HCT-116 > 100 µM | K562 > 100 µM | SF-539 > 100 µM

CNC(=S)OCCC(C)CCCC(C)C (stereo not given)
inactive: SF-268 17 µM | SK-MEL-5 17.5 µM | RXF 393 16.2 µM | LOX IMVI 13.2 µM | OVCAR-8 17.3 µM | SN12C 16.3 µM | NCI-H460 18.7 µM | A549 16.3 µM | SW-620 16.6 µM | SNB-75 20.8 µM | SR 14 µM | KM12 14.4 µM | 786-0 17.2 µM | HCT-116 16.7 µM | K562 13.7 µM | SF-539 16.8 µM

COc1ccc(C2=C(Cl)c3cc(OC)c(OC)cc3C2OC)cc1OC (stereo not given)
inactive: NCI-H522 3.25 µM | SF-268 > 100 µM | SK-MEL-5 > 100 µM | RXF 393 > 100 µM | LOX IMVI 50.2 µM | OVCAR-8 > 100 µM | SN12C > 100 µM | NCI-H460 > 100 µM | A549 > 100 µM | SW-620 19.5 µM | SNB-75 > 100 µM | KM12 > 100 µM | 786-0 11.2 µM | HCT-116 95.7 µM | K562 5.74 µM | SF-539 65.2 µM

Cc1[nH]c2cc([N+](=O)[O-])ccc2c1[N+](=O)[O-]
inactive: NCI-H522 13.3 µM | SF-268 22.1 µM | SK-MEL-5 14 µM | RXF 393 13.6 µM | LOX IMVI 24.6 µM | OVCAR-8 25.8 µM | SN12C 25.6 µM | NCI-H460 20.6 µM | A549 17.1 µM | SW-620 25.2 µM | SNB-75 19 µM | OVCAR-3 25.1 µM | KM12 21.3 µM | 786-0 29 µM | K562 22.2 µM | SF-539 18.8 µM

Nc1nc2c(ncn2C2OC(CO)C(O)C2N)c(=O)[nH]1 (stereo not given)
inactive: NCI-H522 > 100 µM | SF-268 > 100 µM | LOX IMVI 60.1 µM | OVCAR-8 > 100 µM | SN12C > 100 µM | NCI-H460 > 100 µM | A549 97.1 µM | SW-620 > 100 µM | SNB-75 > 100 µM | OVCAR-3 > 100 µM | KM12 > 100 µM | 786-0 48.2 µM | HCT-116 > 100 µM | K562 86.9 µM | SF-539 > 100 µM

CC(=O)OC1(C#N)CC2OC1C1C2N1C(=O)c1ccccc1 (stereo not given)
inactive: NCI-H522 > 100 µM | SF-268 > 100 µM | SK-MEL-5 > 100 µM | RXF 393 > 100 µM | LOX IMVI > 100 µM | OVCAR-8 > 100 µM | SN12C > 100 µM | NCI-H460 > 100 µM | A549 > 100 µM | SW-620 > 100 µM | SNB-75 > 100 µM | 786-0 > 100 µM | HCT-116 > 100 µM | K562 > 100 µM | SF-539 > 100 µM

Cc1ccc(C)c(NC(=O)C(=O)C2C(=O)N(c3ccccc3)N=C2N)c1 (stereo not given)
inactive: NCI-H522 > 100 µM | SF-268 > 100 µM | SK-MEL-5 > 100 µM | RXF 393 > 100 µM | LOX IMVI > 100 µM | OVCAR-8 > 100 µM | SN12C > 100 µM | NCI-H460 > 100 µM | A549 > 100 µM | SW-620 > 100 µM | SNB-75 > 100 µM | OVCAR-3 > 100 µM | KM12 > 100 µM | 786-0 > 100 µM | HCT-116 > 100 µM | K562 90.2 µM | SF-539 > 100 µM
